{"source": "patent US7691900B2", "about": "“Tocopherol derivatives with a long hydroxylated chain, which can be used as neurotrophics” (AxoGlia Therapeutics S.A., priority 2003, dated 2010)", "test_system": "microglial cells activated by LPS", "test": "Release of TNF-α (ELISA) in LPS-activated microglial cell cultures", "format": "cell-based", "details": "microglia treated with 0.01 μg/ml LPS; 24 h activation; tested at 10^-5, 10^-6, 10^-7 M", "procedure": "2. Measurement of the Release of TNF-α\nThe expression of the TNF-a represents a parameter for microglial activation often analyzed in the literature. […] A 24 hrs activation by LPS leads to a high increase in the level of TNF-α expression detectable by the ELISA test.\nIn the experiments, the concentrations of TNF-α in the microglial cell cultures, treated with 0.01 μg/ml of LPS in the presence of TFA-10, TFA-12, TFA-14, TFA-16 and vitamin E, at concentrations of 10^−5, 10^−6 and 10^−7 M, were measured by the inventors after 24 hours activation.", "data": [{"substance": "vitamin E", "values": [{"measurement": "activity on TNF-α production, in words", "value": "no activity"}]}]}
